From US20080051413A1, “Nitrophenylpiperazine derivative of xanthine which relaxes tracheal airway and increases respiratory performance” (KAOHSIUNG MEDICAL UNIVERSITY, priority 2006, published 2008)

Assays:
[1] = target: T1, PDE3 purified from human platelets (Homo sapiens, UniProt Q14432); assay: Phosphodiesterase activity, PDE3; type: biochemical; conditions: 10 _M compound, n = 3
T1 construct: PDE3 and PDE5 purified from human platelets; from tissue; host or cells: human platelets
Description: PDE3 and PDE5 purified from human platelets and PDE4 purified from human U-937 pronocytic cells were used. Test compound (10 _M) or vehicle was incubated with 0.2 _g of enzyme and 1 _M cAMP containing 0.01 _M [^3H]cAMP in Tris buffer, pH 7.5, for 20 min at 25_. The reaction was terminated by boiling for 2 min, and the resulting cAMP was converted to adenosine by the addition of 10 mg/ml snake venom nucleotidase, which is followed by a further incubation at 37_for 10 min. Unhydrolyzed cAMP was bound to AG1-X2 resin, and the remaining [^3H]adenosine in the aqueous phase was quantitated by scintillation counting.

[2] = system: PDE4 purified from human U-937 pronocytic cells; assay: Phosphodiesterase activity, PDE4; type: biochemical; conditions: 10 _M compound, n = 3
Description: Phosphodiesterase Activity: PDE activity was determined by the method of Nicholson et al. (Nicholson C D, Challiss R A, and Shahid M (1991) Differential modulation of tissue function and therapeutic potential of selective inhibitors of cyclic nucleotide phosphodiesterase isonzymes. Trends Pharmaclo Sci 12:19-27). PDE3 and PDE5 purified from human platelets and PDE4 purified from human U-937 pronocytic cells were used. Test compound (10 _M) or vehicle was incubated with 0.2 _g of enzyme and 1 _M cAMP containing 0.01 _M [^3H]cAMP in Tris buffer, pH 7.5, for 20 min at 25_. The reaction was terminated by boiling for 2 min, and the resulting […] was converted to adenosine by the addition of 10 mg/ml snake venom nucleotidase, which is followed by a further incubation at 37_for 10 min. Unhydrolyzed cAMP was bound to AG1-X2 resin, and the remaining [^3H]adenosine in the aqueous phase was quantitated by scintillation counting.

[3] = target: T2, PDE5 purified from human platelets (Homo sapiens, UniProt O76074); assay: Phosphodiesterase activity, PDE5; type: biochemical; conditions: 10 _M compound, n = 3
T2 construct: PDE3 and PDE5 purified from human platelets; from tissue; host or cells: human platelets
Description: The reaction was terminated by boiling for 2 min, and the resulting GMP was converted to adenosine by the addition of 10 mg/ml snake venom nucleotidase, which was followed by a further incubation at 37_ for 10 min. Unhydrolyzed cGMP was bound to AG1-X2 resin, and the remaining [^3H]guanosine in the aqueous phase was quantitated by scintillation counting.

respiratory performance = assay: Pulmonary function after i.v. injection (RL, Cdyn, tidal volume); type: in vivo; conditions: 1 mg/kg i.v., guinea pig, n = 3
Description: Animals: Male Dunkin Harley guinea pigs (350-450 g) were provide by the National Laboratory Animal Breeding and Research Center (Taipei, Taiwan) and housed under conditions of constant temperature and controlled illumination. Food and water were available and libitum. The study was approved by the Animal Care and Use Committee of the Kaohsiung Medical University.
Pulmonary Function: Guinea pegs (350-450 g) were anesthetized with pentobarbital (40 mg/kg i.p.) and maintained with further i.v. doses of 2 to 5 mg/kg when required according to methods previously described (Wu B N, Lin R J, Lo Y C, Shen K P, Wang C C, Lin Y T, and Chen I J (2004) KMUP-1, a xanthine derivative, induces relaxation of guinea-pig isolated trachea: the role of the epithelium, cyclic nucleotides and K^+ channels, Br J Pharmacol 142:1105-1114). The animal was tethered in a supine position, and the trachea was cannulated below the larynx with a short tracheal cannula via a tracheotomy. Tracheal pressure was measured by a catheter connected to the side arm of the tracheal cannula. The carotid artery and jugular vein were cannulated to monitor blood pressure and heart rate and for drug administration, respectively. Throughout the experiment, the body temperature of the guinea pig was maintained at 37_. Measurements of pulmonary cardiac function were carried out as previously described (Hsu T H, Lai Y L, and Kou Y R (1998) Acetylcholine and tachykinin receptor antagonists attenuate wood smoke-induced bronchoconstriction in Guinea pigs. Eur J Pharmacol 360:175-183). Total lung resistance (RL) and dynamic lung compliance (Cdyn) were measured on a breath-by-breath basis using a computer equipped with an A/D interface (DAS 1600; Buxco Electronics, Inc., Wilmington, N.C.) and software (version 1.5.7; Buxco Electronics, Inc.). Results obtained from the computer analysis were checked for accuracy by comparison with those calculated manually.
Animals were allowed to stabilize for 10 min following surgical manipulations before the test agent was administered. Intratracheal instillation was performed using a catheter placed through the tracheal tube into the bronchial system. The catheter connected to a 1-ml syringe was inserted into the trachea cannula extending 1 cm beyond the tip of the cannula for instillation of drug or vehicle. The instillation was followed by rapid intratracheal injection of 0.5 ml of air to facilitate deposition of drug or vehicle into the lungs as in the modified methods of Chung et al. (2001)(Chung W H, Bennett B M, Racz W J, Brien J F, and […] Fischer 344 rats during aminodarone-induced pulmonary fibrosis. Am J Physiol 281:L1180-L1188). The animals were pretreated intratracheally with KMUP-3 (0.5, 1.0, and 2.0 mg/kg/150 _l of saline) or an equivalent volume (150 _l) of vehicle 15 min before TNF-_(0.01 mg/kg/300 _l saline) was instilled to induce acute bronchoconstriction. In another experiments, KMUP-3 or KMUP-1 (1.0 mg/kg i.v.) were used to compare the effects on respiratory performance, indicated by changes of tidal volume, total RL, and Cdyn.

T1 sequence (Q14432 whole entry): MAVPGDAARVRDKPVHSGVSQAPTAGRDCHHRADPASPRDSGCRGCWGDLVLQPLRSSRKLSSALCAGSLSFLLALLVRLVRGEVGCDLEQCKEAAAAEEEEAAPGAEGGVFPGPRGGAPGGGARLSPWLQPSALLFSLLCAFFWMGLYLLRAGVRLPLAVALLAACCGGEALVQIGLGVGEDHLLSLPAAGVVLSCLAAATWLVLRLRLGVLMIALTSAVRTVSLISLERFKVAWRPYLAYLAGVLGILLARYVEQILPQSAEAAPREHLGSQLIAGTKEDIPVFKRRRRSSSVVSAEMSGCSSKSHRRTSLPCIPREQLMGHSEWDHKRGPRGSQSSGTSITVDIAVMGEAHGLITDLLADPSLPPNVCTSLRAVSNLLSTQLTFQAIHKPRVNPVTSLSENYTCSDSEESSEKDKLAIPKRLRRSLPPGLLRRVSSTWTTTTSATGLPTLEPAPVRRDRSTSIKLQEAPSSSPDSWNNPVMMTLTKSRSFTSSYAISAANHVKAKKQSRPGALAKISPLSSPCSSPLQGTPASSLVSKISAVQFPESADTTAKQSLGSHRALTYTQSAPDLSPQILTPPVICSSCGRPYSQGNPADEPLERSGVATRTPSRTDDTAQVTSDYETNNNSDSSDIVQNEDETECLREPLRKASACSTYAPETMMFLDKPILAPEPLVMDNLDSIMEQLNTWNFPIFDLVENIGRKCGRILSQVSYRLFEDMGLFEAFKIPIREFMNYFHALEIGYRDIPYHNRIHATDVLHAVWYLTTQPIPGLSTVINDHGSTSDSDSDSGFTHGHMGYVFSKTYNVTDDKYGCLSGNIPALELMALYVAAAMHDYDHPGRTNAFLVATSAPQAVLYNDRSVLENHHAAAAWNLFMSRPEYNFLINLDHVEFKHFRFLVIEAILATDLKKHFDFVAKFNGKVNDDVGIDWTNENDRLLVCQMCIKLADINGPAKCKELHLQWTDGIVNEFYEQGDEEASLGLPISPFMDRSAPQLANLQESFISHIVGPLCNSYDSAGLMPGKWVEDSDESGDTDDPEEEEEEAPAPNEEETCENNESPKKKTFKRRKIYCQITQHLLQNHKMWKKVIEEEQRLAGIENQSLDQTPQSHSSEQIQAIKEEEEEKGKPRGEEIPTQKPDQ

## Cn1c(=O)c2c(ncn2CCN2CCN(c3ccccc3Cl)CC2)n(C)c1=O [KMUP-1, reference compound]
[1]
  PDE3 inhibition: 23 ± 2.2%
[2]
  PDE4 Inhibition: 18 ± 2.3%
[3]
  PDE5 Inhibition: 29 ± 2.5%
Respiratory performance
  Cdyn, Maximum change of baseline (%): 35 ± 4.5%
  RL, Maximum change of baseline (%): −20 ± 3.5%
  Tidal Volume, Maximum change of baseline (%): 2.8 ± 0.2%
